Where “and” joins values, the source holds several entries; their conditions need not be identical. Equal entries are not always repeated.
Assay: Plasma levels and pharmacokinetics of intravenous ITPP
Settings: for VSSO / VZO / AUCTmax / AUC∞ / AUC∞ / Dose / AUMCTmax / AUMC∞ / CLO / Clast / Cmax / Cmax / Dose / Cmin / Elimination rate λz / Half-life / T0.5 / MRTTmax / MRT∞ / Tlast / Tmax: individual patients

What does the source list for `O=P1(O)OC2C3OP(=O)(O)OP(=O)(O)OC3C3OP(=O)(O)OP(=O)(O)OC3C2OP(=O)(O)O1` (stereo not drawn) [ITPP, Myo-inositol trispyrophosphate]?
VSSO (cohort 2 (3732 mg/m2)): 10.6 L and 11.9 L and 8.8 L; VZO (cohort 2 (3732 mg/m2)): 8.9 L and 10.8 L and 8.1 L; AUCTmax (cohort 3 (5600 mg/m2)): 1142.0 µg·h/mL and 856.4 µg·h/mL and 1779.2 µg·h/mL; AUC∞ (cohort 3 (5600 mg/m2)): 1264.3 µg·h/mL and 945.9 µg·h/mL and 1987.5 µg·h/mL; AUC∞ / Dose (cohort 3 (5600 mg/m2)): 0.2 h*mg/L/mg (2×) and 0.4 h*mg/L/mg; AUMCTmax (cohort 3 (5600 mg/m2)): 6061.8 h2*mg/L and 4859.5 h2*mg/L and 9884.9 h2*mg/L; AUMC∞ (cohort 3 (5600 mg/m2)): 7579.9 h2*mg/L and 5932.4 h2*mg/L and 12427.3 h2*mg/L; CLO (cohort 3 (5600 mg/m2)): 4.4 L/h and 5.9 L/h and 2.8 L/h; Clast (cohort 3 (5600 mg/m2)): 50.5 µg/mL and 45.2 µg/mL and 94.2 µg/mL; Cmax (cohort 3 (5600 mg/m2)): 163.0 µg/mL and 120.7 µg/mL and 246.0 µg/mL; Cmax / Dose (cohort 3 (5600 mg/m2)): 0.0 mg/L/mg; Cmin (cohort 3 (5600 mg/m2)): 0 ng/mL; Elimination rate λz (cohort 3 (5600 mg/m2)): 0.4 /h and 0.5 /h (2×); Half-life / T0.5 (cohort 3 (5600 mg/m2)): 1.7 h and 1.4 h and 1.5 h; MRTTmax (cohort 3 (5600 mg/m2)): 1.3 h and 1.7 h and 1.6 h; MRT∞ (cohort 3 (5600 mg/m2)): 2.0 h and 2.3 h (2×); Tlast (cohort 3 (5600 mg/m2)): 10 h; Tmax (cohort 3 (5600 mg/m2)): 6.0 h; VSSO (cohort 3 (5600 mg/m2)): 8.8 L and 13.4 L and 6.3 L; VZO (cohort 3 (5600 mg/m2)): 10.7 L and 11.7 L and 6.2 L; AUCTmax (cohort 4 (7000 mg/m2)): 1942.5 µg·h/mL and 1258.2 µg·h/mL and 1667.1 µg·h/mL and 1676.0 µg·h/mL; AUC∞ (cohort 4 (7000 mg/m2)): 3708.1 µg·h/mL and 1559.8 µg·h/mL and 2130.6 µg·h/mL and 1755.9 µg·h/mL; AUC∞ / Dose (cohort 4 (7000 mg/m2)): 0.5 h*mg/L/mg and 0.2 h*mg/L/mg and 0.3 h*mg/L/mg (2×); AUMCTmax (cohort 4 (7000 mg/m2)): 11888.0 h2*mg/L and 7283.0 h2*mg/L and 9303.5 h2*mg/L and 8707.6 h2*mg/L; AUMC∞ (cohort 4 (7000 mg/m2)): 44109.2 h2*mg/L and 11265.8 h2*mg/L and 15649.8 h2*mg/L and 9654.5 h2*mg/L; CLO (cohort 4 (7000 mg/m2)): 1.9 L/h and 4.5 L/h and 3.3 L/h and 4.0 L/h; Clast (cohort 4 (7000 mg/m2)): 214.0 µg/mL and 94.0 µg/mL and 125.5 µg/mL and 43.0 µg/mL; Cmax (cohort 4 (7000 mg/m2)): 283.0 µg/mL and 166.5 µg/mL and 224.5 µg/mL and 292.0 µg/mL; Cmax / Dose (cohort 4 (7000 mg/m2)): 0.0 mg/L/mg; Cmin (cohort 4 (7000 mg/m2)): 0 ng/mL; Elimination rate λz (cohort 4 (7000 mg/m2)): 0.1 /h and 0.3 /h (2×) and 0.5 /h; Half-life / T0.5 (cohort 4 (7000 mg/m2)): 5.7 h and 2.2 h and 2.6 h and 1.3 h; MRTTmax (cohort 4 (7000 mg/m2)): 2.1 h and 1.8 h and 1.6 h and 1.2 h; MRT∞ (cohort 4 (7000 mg/m2)): 7.9 h and 3.2 h and 3.3 h and 1.5 h; Tlast (cohort 4 (7000 mg/m2)): 10 h; Tmax (cohort 4 (7000 mg/m2)): 9.0 h and 6.0 h (2×) and 3.0 h; VSSO (cohort 4 (7000 mg/m2)): 14.9 L and 14.5 L and 11.0 L and 6.0 L; VZO (cohort 4 (7000 mg/m2)): 15.6 L and 14.4 L and 12.1 L and 7.4 L; AUCTmax (cohort 5 (8750 mg/m2)): 1729.5 µg·h/mL and 2397.4 µg·h/mL and 1424.5 µg·h/mL; AUC∞ (cohort 5 (8750 mg/m2)): 1910.9 µg·h/mL and 2946.9 µg·h/mL and 1803.3 µg·h/mL; AUC∞ / Dose (cohort 5 (8750 mg/m2)): 0.2 h*mg/L/mg (2×) and 0.3 h*mg/L/mg; AUMCTmax (cohort 5 (8750 mg/m2)): 9560.8 h2*mg/L and 13507.9 h2*mg/L and 8120.6 h2*mg/L; AUMC∞ (cohort 5 (8750 mg/m2)): 11777.2 h2*mg/L and 20800.6 h2*mg/L and 13329.9 h2*mg/L; CLO (cohort 5 (8750 mg/m2)): 4.6 L/h and 3.0 L/h and 4.9 L/h; Clast (cohort 5 (8750 mg/m2)): 81.5 µg/mL and 168.0 µg/mL and 101.0 µg/mL; Cmax (cohort 5 (8750 mg/m2)): 266.5 µg/mL and 306.0 µg/mL and 201.0 µg/mL; Cmax / Dose (cohort 5 (8750 mg/m2)): 0.0 mg/L/mg; Cmin (cohort 5 (8750 mg/m2)): 0 ng/mL; Elimination rate λz (cohort 5 (8750 mg/m2)): 0.4 /h and 0.3 /h (2×); Half-life / T0.5 (cohort 5 (8750 mg/m2)): 1.5 h and 2.3 h and 2.6 h; MRTTmax (cohort 5 (8750 mg/m2)): 1.5 h and 1.6 h and 1.7 h; MRT∞ (cohort 5 (8750 mg/m2)): 2.2 h and 3.1 h and 3.4 h; Tlast (cohort 5 (8750 mg/m2)): 10 h; Tmax (cohort 5 (8750 mg/m2)): 6.0 h; VSSO (cohort 5 (8750 mg/m2)): 9.9 L and 9.1 L and 16.5 L; VZO (cohort 5 (8750 mg/m2)): 10.2 L and 9.7 L and 18.2 L; AUCTmax (cohort 6 (10500 mg/m2)): 1813.1 µg·h/mL and 2491.5 µg·h/mL and 3266.4 µg·h/mL and 2233.0 µg·h/mL; AUC∞ (cohort 6 (10500 mg/m2)): 1921.1 µg·h/mL and 3551.0 µg·h/mL and 8601.3 µg·h/mL and 2661.5 µg·h/mL; AUC∞ / Dose (cohort 6 (10500 mg/m2)): 0.2 h*mg/L/mg and 0.3 h*mg/L/mg (2×) and 0.8 h*mg/L/mg; AUMCTmax (cohort 6 (10500 mg/m2)): 10264.8 h2*mg/L and 13653.6 h2*mg/L and 19354.9 h2*mg/L and 12411.4 h2*mg/L; AUMC∞ (cohort 6 (10500 mg/m2)): 11500.0 h2*mg/L and 30316.3 h2*mg/L and 157035.6 h2*mg/L and 17933.0 h2*mg/L; CLO (cohort 6 (10500 mg/m2)): 5.5 L/h and 3.0 L/h and 1.2 L/h and 3.9 L/h; Clast (cohort 6 (10500 mg/m2)): 74.8 µg/mL and 185.0 µg/mL and 337.5 µg/mL and 148.5 µg/mL; Cmax (cohort 6 (10500 mg/m2)): 265.0 µg/mL and 339.5 µg/mL and 451.0 µg/mL and 299.5 µg/mL; Cmax / Dose (cohort 6 (10500 mg/m2)): 0.0 mg/L/mg; Cmin (cohort 6 (10500 mg/m2)): 0 ng/mL; Elimination rate λz (cohort 6 (10500 mg/m2)): 0.7 h⁻¹ and 0.2 h⁻¹ and 0.1 h⁻¹ and 0.3 h⁻¹; Half-life / T0.5 (cohort 6 (10500 mg/m2)): 1.0 h and 4.0 h and 11.0 h and 2.0 h; MRTTmax (cohort 6 (10500 mg/m2)): 1.7 h and 1.5 h and 1.9 h and 1.6 h; MRT∞ (cohort 6 (10500 mg/m2)): 2.0 h and 4.5 h and 14.3 h and 2.7 h; Tlast (cohort 6 (10500 mg/m2)): 10 h; Tmax (cohort 6 (10500 mg/m2)): 6.0 h (2×) and 3.0 h (2×); VSSO (cohort 6 (10500 mg/m2)): 10.9 L and 13.4 L and 17.4 L and 10.8 L; VZO (cohort 6 (10500 mg/m2)): 7.9 L and 16.9 L and 19.3 L and 11.4 L; AUCTmax (cohort 7 (12390 mg/m2)): 2548.8 µg·h/mL and 2725.4 µg·h/mL and 2231.0 µg·h/mL; AUC∞ (cohort 7 (12390 mg/m2)): 3050.7 µg·h/mL and 3012.0 µg·h/mL and 2566.2 µg·h/mL; AUC∞ / Dose (cohort 7 (12390 mg/m2)): 0.2 mg·h/L/mg; AUMCTmax (cohort 7 (12390 mg/m2)): 14937.6 h2*mg/L and 15888.2 h2*mg/L and 12461.8 h2*mg/L; AUMC∞ (cohort 7 (12390 mg/m2)): 21377.1 h2*mg/L and 19295.7 h2*mg/L and 16684.7 h2*mg/L; CLO (cohort 7 (12390 mg/m2)): 4.1 L/h (2×) and 4.8 L/h; Clast (cohort 7 (12390 mg/m2)): 177.5 µg/mL and 152.0 µg/mL and 129.0 µg/mL; Cmax (cohort 7 (12390 mg/m2)): 367.5 µg/mL and 403.5 µg/mL and 311.0 µg/mL; Cmax / Dose (cohort 7 (12390 mg/m2)): 0.0 mg/L/mg; Cmin (cohort 7 (12390 mg/m2)): 0 ng/mL; Elimination rate λz (cohort 7 (12390 mg/m2)): 0.4 /h (2×) and 0.5 /h; Half-life / T0.5 (cohort 7 (12390 mg/m2)): 2.0 h and 1.3 h and 1.8 h; MRTTmax (cohort 7 (12390 mg/m2)): 1.9 h and 1.8 h and 1.6 h; MRT∞ (cohort 7 (12390 mg/m2)): 3.0 h and 2.4 h and 2.5 h; Tlast (cohort 7 (12390 mg/m2)): 10 h; Tmax (cohort 7 (12390 mg/m2)): 6.0 h; VSSO (cohort 7 (12390 mg/m2)): 12.2 L and 9.9 L and 12.1 L; VZO (cohort 7 (12390 mg/m2)): 11.5 L and 7.8 L and 12.5 L; AUCTmax (cohort 8 (14500 mg/m2)): 3458.0 µg·h/mL and 2612.8 µg·h/mL and 3213.9 µg·h/mL and 2461.1 µg·h/mL; AUC∞ (cohort 8 (14500 mg/m2)): 3978.5 µg·h/mL and 2818.3 µg·h/mL and 3977.9 µg·h/mL and 2763.6 µg·h/mL; AUC∞ / Dose (cohort 8 (14500 mg/m2)): 0.3 h*mg/L/mg (2×) and 0.2 h*mg/L/mg (2×); AUMCTmax (cohort 8 (14500 mg/m2)): 20144.2 h2*mg/L and 14245.4 h2*mg/L and 18540.8 h2*mg/L and 14081.6 h2*mg/L; AUMC∞ (cohort 8 (14500 mg/m2)): 26577.3 h2*mg/L and 16679.9 h2*mg/L and 28758.2 h2*mg/L and 17835.7 h2*mg/L; CLO (cohort 8 (14500 mg/m2)): 3.6 L/h (2×) and 5.1 L/h and 5.2 L/h; Clast (cohort 8 (14500 mg/m2)): 220.5 µg/mL and 111.5 µg/mL and 226.5 µg/mL and 125.7 µg/mL; Cmax (cohort 8 (14500 mg/m2)): 496.0 µg/mL and 377.0 µg/mL and 464.5 µg/mL and 426.0 µg/mL; Cmax / Dose (cohort 8 (14500 mg/m2)): 0.0 mg/L/mg; Cmin (cohort 8 (14500 mg/m2)): 0 ng/mL; Elimination rate λz (cohort 8 (14500 mg/m2)): 0.4 /h (2×) and 0.5 /h and 0.3 /h; Half-life / T0.5 (cohort 8 (14500 mg/m2)): 1.6 h and 1.3 h and 2.3 h and 1.7 h; MRTTmax (cohort 8 (14500 mg/m2)): 1.8 h (2×) and 1.5 h and 1.7 h; MRT∞ (cohort 8 (14500 mg/m2)): 2.7 h and 1.9 h and 3.2 h and 2.5 h; Tlast (cohort 8 (14500 mg/m2)): 10 h; Tmax (cohort 8 (14500 mg/m2)): 6.0 h; VSSO (cohort 8 (14500 mg/m2)): 9.8 L and 9.9 L and 11.8 L and 12.9 L; VZO (cohort 8 (14500 mg/m2)): 8.6 L and 9.5 L and 12.3 L and 12.6 L; Half-life (range over the different cohorts): 1.3 to 3.3 h
